Assay results reported in patent EP4663640A1 (Shanghai Institute of Materia Medica, Chinese Academy of …, priority 2023, dated 2024).
Read-outs that look alike come from different tables or passages of the source.

Tests used:
Format in all cases: cell-based
hTRPC5 = biological target: T1, hTRPC5 (Homo sapiens, UniProt Q9UL62); assay: TRPC5 inhibitory activity assay (FLIPR calcium fluorescence, Englerin A stimulation)
T1 construct: expressed in transfected cells; host or cells: HEK-293
T1 sequence (Q9UL62 1-973): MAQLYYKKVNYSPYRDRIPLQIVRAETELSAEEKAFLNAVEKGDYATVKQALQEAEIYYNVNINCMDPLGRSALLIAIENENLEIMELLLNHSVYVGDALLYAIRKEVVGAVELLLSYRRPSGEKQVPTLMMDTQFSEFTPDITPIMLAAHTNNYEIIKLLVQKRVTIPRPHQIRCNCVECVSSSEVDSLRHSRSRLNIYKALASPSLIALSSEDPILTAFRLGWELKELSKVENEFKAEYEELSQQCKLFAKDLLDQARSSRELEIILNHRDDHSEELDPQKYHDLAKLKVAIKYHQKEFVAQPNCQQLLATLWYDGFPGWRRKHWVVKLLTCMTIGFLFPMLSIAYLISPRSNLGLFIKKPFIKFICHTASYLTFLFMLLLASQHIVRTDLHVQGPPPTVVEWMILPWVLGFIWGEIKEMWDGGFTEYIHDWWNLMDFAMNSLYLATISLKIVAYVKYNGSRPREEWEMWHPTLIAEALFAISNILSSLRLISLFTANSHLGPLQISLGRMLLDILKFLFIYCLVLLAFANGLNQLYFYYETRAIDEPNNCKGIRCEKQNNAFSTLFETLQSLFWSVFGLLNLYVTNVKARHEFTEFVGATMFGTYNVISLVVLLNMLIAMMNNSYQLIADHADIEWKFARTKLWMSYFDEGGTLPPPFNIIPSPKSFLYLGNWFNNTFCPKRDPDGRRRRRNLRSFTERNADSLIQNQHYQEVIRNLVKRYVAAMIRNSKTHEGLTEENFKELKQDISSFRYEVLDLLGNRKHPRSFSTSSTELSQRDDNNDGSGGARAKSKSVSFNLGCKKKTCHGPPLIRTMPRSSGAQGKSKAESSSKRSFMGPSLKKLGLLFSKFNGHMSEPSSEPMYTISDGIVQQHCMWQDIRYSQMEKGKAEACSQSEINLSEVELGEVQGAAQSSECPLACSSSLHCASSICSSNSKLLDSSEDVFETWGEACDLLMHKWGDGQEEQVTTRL
How it was run: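 HEK-293 cells expressing the human channel, loaded with 4 µM Fluo-4/AM for 60 min at 37 °C, then stimulated with Englerin A (0.3nM final) and read for 600 s.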

hTRPC4 = biological target: T2, hTRPC4 (Homo sapiens, UniProt Q9UBN4); assay: TRPC4 inhibitory activity assay (FLIPR calcium fluorescence)
T2 construct: expressed in transfected cells; host or cells: HEK-293
T2 sequence (Q9UBN4 1-977): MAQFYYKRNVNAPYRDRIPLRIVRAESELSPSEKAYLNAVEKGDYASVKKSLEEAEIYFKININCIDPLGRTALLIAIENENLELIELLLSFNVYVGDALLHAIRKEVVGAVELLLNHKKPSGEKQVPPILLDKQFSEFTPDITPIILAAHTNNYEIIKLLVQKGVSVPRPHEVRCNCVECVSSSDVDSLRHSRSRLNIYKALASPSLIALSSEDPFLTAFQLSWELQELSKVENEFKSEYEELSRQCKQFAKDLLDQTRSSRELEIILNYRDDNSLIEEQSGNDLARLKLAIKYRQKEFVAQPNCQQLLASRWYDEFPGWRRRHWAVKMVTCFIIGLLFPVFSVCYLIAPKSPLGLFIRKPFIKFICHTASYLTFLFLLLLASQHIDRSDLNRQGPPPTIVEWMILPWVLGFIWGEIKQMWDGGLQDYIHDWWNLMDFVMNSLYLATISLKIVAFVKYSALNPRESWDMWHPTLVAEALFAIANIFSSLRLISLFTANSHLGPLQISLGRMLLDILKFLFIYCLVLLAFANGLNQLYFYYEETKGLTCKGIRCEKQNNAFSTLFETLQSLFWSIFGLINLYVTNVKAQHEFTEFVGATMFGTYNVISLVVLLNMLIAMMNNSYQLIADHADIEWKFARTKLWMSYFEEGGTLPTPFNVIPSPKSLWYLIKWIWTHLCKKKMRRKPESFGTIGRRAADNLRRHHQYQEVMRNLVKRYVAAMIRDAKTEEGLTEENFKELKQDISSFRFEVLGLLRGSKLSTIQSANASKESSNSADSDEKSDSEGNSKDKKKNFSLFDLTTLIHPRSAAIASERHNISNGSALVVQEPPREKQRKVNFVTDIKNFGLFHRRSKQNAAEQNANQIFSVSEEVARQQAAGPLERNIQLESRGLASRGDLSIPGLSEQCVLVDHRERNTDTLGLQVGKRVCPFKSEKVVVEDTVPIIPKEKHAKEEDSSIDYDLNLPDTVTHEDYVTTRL
Method: HEK-293 cells expressing hTRPC3, hTRPC4 or hTRPC5 were seeded into black-bottomed 96-well plates coated with poly-lysine (PDL), with 2×10^4 cells per well. After 8 h of culture, the original culture medium was discarded, and 60 µL of Fluo-4/AM dye with a final concentration of 4 µM was added. The plates were incubated at 37 °C for 60 min, and then rinsed five times with calcium flow detection buffer. […] Then, the agonist Englerin A (EA) (MedChemExpress, Shanghai, China, final concentration of 0.3nM) was added, and the fluorescence signal was collected for 600 seconds. The fluorescence signal of the trajectory diagram is represented by F/F0, wherein F is the fluorescence signal at different time points, and F0 is the basic fluorescence signal, that is, the average value of the fluorescence signal at the first 10 time points. […] The area under the curve of the change in fluorescence intensity after adding EA was calculated. IC50 value was calculated using log[Inhibitor] vs. response - Variable slope, taking into account the area under the curve and the log value of the concentration of the compound.

hERG channel = biological target: T3, hERG channel (Homo sapiens, UniProt Q12809); assay: hERG channel inhibition assay (Qpatch whole-cell recording, CHO cells expressing hERG); conditions: for IC50: Table 3, highest test concentration 40 µM, read-out: inhibitory activity IC50 hERG
T3 construct: expressed in transfected cells; host or cells: CHO
T3 sequence (Q12809 whole entry): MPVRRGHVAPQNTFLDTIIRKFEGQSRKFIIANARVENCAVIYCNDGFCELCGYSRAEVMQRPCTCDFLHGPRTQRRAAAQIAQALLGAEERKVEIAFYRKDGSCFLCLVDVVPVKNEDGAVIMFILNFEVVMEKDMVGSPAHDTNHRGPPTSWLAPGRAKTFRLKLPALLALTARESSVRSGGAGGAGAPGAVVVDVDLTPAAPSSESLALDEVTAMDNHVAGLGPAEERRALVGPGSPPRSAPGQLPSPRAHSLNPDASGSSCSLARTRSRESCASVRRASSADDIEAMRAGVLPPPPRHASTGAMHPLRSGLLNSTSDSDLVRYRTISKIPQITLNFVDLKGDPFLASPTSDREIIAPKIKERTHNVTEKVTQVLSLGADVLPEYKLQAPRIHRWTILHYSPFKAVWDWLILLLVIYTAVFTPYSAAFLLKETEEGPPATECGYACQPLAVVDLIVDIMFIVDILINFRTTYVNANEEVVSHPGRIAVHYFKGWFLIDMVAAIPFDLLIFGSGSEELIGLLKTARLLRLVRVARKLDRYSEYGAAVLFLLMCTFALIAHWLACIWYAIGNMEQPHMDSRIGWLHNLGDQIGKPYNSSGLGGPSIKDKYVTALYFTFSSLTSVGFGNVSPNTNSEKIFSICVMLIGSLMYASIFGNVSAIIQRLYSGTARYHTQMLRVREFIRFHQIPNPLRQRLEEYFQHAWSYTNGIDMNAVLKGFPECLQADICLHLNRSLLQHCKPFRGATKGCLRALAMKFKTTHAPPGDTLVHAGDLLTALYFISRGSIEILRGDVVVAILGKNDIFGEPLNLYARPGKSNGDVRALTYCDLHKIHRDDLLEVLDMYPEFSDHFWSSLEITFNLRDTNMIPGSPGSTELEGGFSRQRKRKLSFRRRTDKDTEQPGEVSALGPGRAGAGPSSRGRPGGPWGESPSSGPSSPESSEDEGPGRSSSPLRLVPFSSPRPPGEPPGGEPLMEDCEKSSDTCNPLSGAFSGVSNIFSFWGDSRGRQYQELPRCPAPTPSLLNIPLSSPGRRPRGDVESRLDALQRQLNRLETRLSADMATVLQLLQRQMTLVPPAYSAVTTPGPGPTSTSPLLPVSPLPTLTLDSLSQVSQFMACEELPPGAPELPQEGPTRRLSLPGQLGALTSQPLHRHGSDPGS
Method: CHO cells expressing hERG protein were cultured in 175cm^2 culture flasks. When the cell density grew to 60-80%, the culture medium was removed, and the cells were washed with 7mL PBS, and then 3mL Detachin was added for digestion. After digestion was complete, 7mL culture medium was added for neutralization, and then centrifuged, the supernatant was aspirated, and 5mL culture medium was added for resuspending to ensure that the cell density was 2-5×10^6/mL.
The single-cell high-impedance sealing and whole-cell pattern formation process were all automatically completed by the Qpatch instrument. After obtaining the whole-cell recording mode, the cell was clamped at -80 mV. […] This voltage stimulus was applied every 15 seconds. After recording for 2 minutes, the extracellular solution was recorded for 2 minutes, and then the drug administration process began. The compound concentration started from the lowest test concentration, and each test concentration was given for 2 minutes. After all concentrations were given continuously, the positive control compound 10 µM Cisapride was given. At least 3 cells (n≥3) were tested for each concentration.
The stock solution of compound was diluted with extracellular solution, 5 µL of 20 mM compound stock solution was added to 2495 µL of extracellular solution, 500 times diluted to 40 µM, and then 3 times serial dilution was performed in the extracellular solution containing 0.2% DMSO to obtain the final concentration to be tested.
(5) Data analysis: The experimental data were analyzed by XLFit software.

[1] = Table 1, TRPC5 channels, HEK-293 cells expressing hTRPC5, read-out: FLIPR IC50
[2] = Table 3, read-out: inhibitory activity IC50 TRPC5
[3] = Table 3, read-out: inhibitory activity IC50 TRPC4

| Structure (SMILES) | IC50 (hTRPC5; [1]) | IC50 (hTRPC5; [2]) | IC50 (hTRPC4; [3]) | IC50 (hERG channel) | IC50 (hTRPC5) | IC50 (hTRPC4) | selectivity ratio (hERG channel; ratio of IC50 values, read-out: relative selectivity hERG/ TRPC5) |
| --- | --- | --- | --- | --- | --- | --- | --- |
| Cn1c(=O)n(CCCO)c(=O)c2c1nc(C1(F)CCC(C(F)(F)F)CC1)n2Cc1ccc(Cl)cc1 (stereo not drawn) [Example E21, 7-(4-chlorobenzyl)-8-(1-fluoro-4-(trifluoromethyl)cyclohexyl)-1-(3-hydroxypropyl)-3-methyl-3,7-dihydro-1H-purine-2,6-dione] | 5.1 nM | 5.1 nM | 8.3 nM | > 40 µM | – | – | – |
| COC1CCC(F)(c2nc3c(c(=O)n(CCCO)c(=O)n3C)n2Cc2ccc(Cl)cc2)CC1 (stereo not drawn) [Example E32, 7-(4-chlorobenzyl)-8-(1-fluoro-4-methoxycyclohexyl)-1-(3-hydroxypropyl)-3-methyl-3,7-dihydro-1H-purine-2,6-dione] | 10.2 nM | 10.2 nM | 18.4 nM | 7.52 µM | – | – | – |
| Cn1c(=O)n(CCCO)c(=O)c2c1nc(C1(F)CCC(C(F)(F)F)CC1)n2Cc1ccc(F)c(F)c1 (stereo not drawn) [Example E52] | – | – | – | > 40 µM | 1.3 nM | 5.7 nM | > 30800 |
| Cn1c(=O)n(CCCO)c(=O)c2c1nc(C1(F)CCC(F)(F)CC1)n2Cc1ccc(F)c(Cl)c1 [Example E68, 7-(3-chloro-4-fluorobenzyl)-1-(3-hydroxypropyl)-3-methyl-8-(1,4,4-trifluorocyclohexyl)-3,7-dihydro-1H-purine-2,6-dione] | 0.58 nM | 0.58 nM | – | > 40 µM | – | – | – |
